# According to patent US10815233B2, “Dihydroindolizinone derivative” (ONO PHARMACEUTICAL CO., LTD., priority 2014, dated 2020):
# Key:
# [1] = Pharmacokinetic (PK) tests in rats; format: in vivo
# Method: The compound of the present invention was administered to fasted male Crj:CD(SD) rats by intravenous injection as a single intravenous dose of 0.1 mg/kg (vehicle: 20% HP-β-CD solution) and by forced oral dosage as a dose of 1 mg/kg per os (vehicle: 0.5% methylcellulose solution). Blood samples were collected from cervical vein into heparinized syringes at 0.08, 0.25, 0.5, 1, 3 or 7 hours after administration by intravenous injection or 0.08, 0.25, 0.5, 1, 2, 4, 6, 8 or 24 hours after oral administration. Plasma was obtained by centrifugation, and plasma was stored at −20° C. until measurement of plasma concentration.
# In order to measure the plasma concentration of the compound of the present invention, the plasma sample was subjected to deproteinization by using acetonitrile, was filtrated by using a filter, and thereafter, was diluted with purified water, and then was analyzed by LC/MS/MS. A column for analysis (Shim-pack XR-ODSII, 2.0 mm×75 mm, 2.2 μm) and mobile phases (0.1% formic acid in water and 0.1% formic acid in acetonitrile, flow rate: 0.5 mL/min) were used. The system was used by detection of cations in the Multiple Reaction Monitoring (MRM) mode.
# The area under the blood concentration versus time curve (AUC) and the bioavailability (BA) of the compound of the present invention were calculated. In addition, as indices of the maintaining time of the anticoagulation activity in the case of oral administration, AUC/APTT×2, which is obtained by dividing AUC by APTT×2, and C8h/APTT×2, which is obtained by dividing C8h (the plasma concentration at 8 hours after administration) by APTT×2, were calculated.
# In addition, the period of time when the compound concentration in plasma of the compound of the present invention exceeded APTT×2 (the APTT×2 maintaining time) was calculated from the change in the compound concentration in plasma in the case when the compound of the present invention was orally administered at a dose of 1 mg/kg. The longer the APTT×2 maintaining time is, the longer the period of time is when the anticoagulation activity is maintained after oral administration.
# [2] = molecular target: T1, human blood coagulation factor XIa (Homo sapiens, UniProt P03951); experiment: Inhibitory activity on human blood coagulation factor XIa (chromogenic substrate S-2366); format: biochemical; settings: chromogenic substrate S-2366, 37° C.; read-out: FXIa inhibitory activity IC50
# T1 construct: human blood coagulation factor XIa (Haematologic Technologies Inc.); purchased Haematologic Technologies Inc
# T1 sequence (P03951 388-625 limits assumed): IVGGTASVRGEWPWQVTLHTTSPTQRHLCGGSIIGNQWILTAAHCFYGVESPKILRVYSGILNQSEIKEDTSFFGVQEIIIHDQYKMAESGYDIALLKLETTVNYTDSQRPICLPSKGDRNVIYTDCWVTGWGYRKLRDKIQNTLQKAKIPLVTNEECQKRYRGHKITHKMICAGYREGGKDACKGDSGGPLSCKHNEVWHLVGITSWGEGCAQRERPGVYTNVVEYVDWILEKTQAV
# T1 sequence (P03951 19-387 partner limits assumed): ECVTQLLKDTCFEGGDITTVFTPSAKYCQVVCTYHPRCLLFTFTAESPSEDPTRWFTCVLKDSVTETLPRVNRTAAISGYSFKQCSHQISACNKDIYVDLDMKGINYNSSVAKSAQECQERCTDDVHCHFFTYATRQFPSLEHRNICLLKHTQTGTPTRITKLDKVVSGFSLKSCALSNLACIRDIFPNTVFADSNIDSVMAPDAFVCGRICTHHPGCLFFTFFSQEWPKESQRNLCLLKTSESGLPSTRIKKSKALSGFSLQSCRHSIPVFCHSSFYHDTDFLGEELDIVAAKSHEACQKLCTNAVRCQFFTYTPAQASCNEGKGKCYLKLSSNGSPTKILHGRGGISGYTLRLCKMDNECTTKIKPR
# Method: Inhibitory activities of the compound of the present invention on human blood coagulation factor XIa, factor VIIa, factor IXa, factor Xa, factor XIIa, plasma kallikrein and thrombin were evaluated. A chromogenic substrate solution was added to each of enzyme solutions, the absorbance at 405 nm was measured continuously at 37° C. for 5 minutes at intervals of 15 seconds, and the decomposition rate of each of substrates (mOD/min) was calculated. The half maximal (50%) inhibitory concentration (IC50) of the compound of the present invention on each of the enzymes was calculated by linear regression by using least-squares method from the concentration of the compound of the present invention which was converted in terms of natural logarithm and the rate of enzyme inhibition calculated according to the following equation.
# The rate of enzyme inhibition (%) of the compound of the present invention was calculated by using the following equation: Rate of enzyme inhibition (%)=100×{(Cont(e)−BL(e))−(Comp(e)−BL(e))/(Cont(e)−BL(e))}
# Cont (e): Decomposition rate of substrate (mOD/min) when enzyme solution and substrate solution were added to physiological saline containing 5% dimethyl sulfoxide
# Comp (e): Decomposition rate of substrate (mOD/min) when enzyme solution and substrate solution were added to physiological saline containing 5% dimethyl sulfoxide and the compound of the present invention
# The inhibitory activity on human blood coagulation factor XIa (Haematologic Technologies Inc.) was measured by using the enzyme solution adjusted to 0.1 U/mL by a buffer solution containing 300 mM of NaCl, 10 mM of KCl, 2 mg/mL of PEG 6000 and 100 mM of HEPES-NaOH (pH 7.4) as well as S-2366 (pyroglu-Pro-Arg-pNA, CHROMOGENIX) adjusted to 1 mM by distilled water.
# [3] = system: standard human plasma; experiment: Activated partial thromboplastin time (APTT) in standard human plasma; format: biochemical; settings: concentration required for doubling the coagulation time vs vehicle (1% DMSO)
# Method: Activated partial thromboplastin time (APTT) and prothrombin time (PT) were measured by using a fully automatic device for measuring blood coagulation (CA-1500, Sysmex Corporation). On APTT or PT measurement, standard human plasma for the blood coagulation tests (Siemens Healthcare Diagnostics GmbH) was mixed with a diluted solution of the compound of the present invention, and thereafter, APTT reagent (Siemens Healthcare Diagnostics GmbH) and 0.02 M of calcium chloride or PT reagent (Siemens Healthcare Diagnostics GmbH) were automatically added to the mixture in order to initiate clot formation. The anticoagulation activity (APTT×2 or PT×2) of the compound of the present invention was expressed as a concentration required for doubling the coagulation time in the vehicle (1% DMSO) group. APTT×2 or PT×2 was determined by plotting the concentration of the compound of the present invention against a twofold increase in the coagulation time.
smiles,measurement,setting,value
"N#Cc1cn(-c2ccc(Cl)cc2-c2cc3n(c(=O)c2)[C@H](c2nc(F)c(-c4ccc(N)cc4)[nH]2)CC3)nn1 [Example 4 (10), 1-(2-{(3S)-3-[5-(4-aminophenyl)-4-fluoro-1H-imidazol-2-yl]-5-oxo-1,2,3,5-tetrahydro-7-indolizinyl}-4-chlorophenyl)-1H-1,2,3-triazole-4-carbonitrile]",concentration at 8 h,"[1]; male, Crj:CD(SD), rat, plasma, oral, rats, 1 mg/kg per os, 8 hours after administration, read-out: Plasma concentration C8h",2500 nM
same,AUC,"[1]; rat, plasma, po, fasted male Crj:CD(SD) rats, 1 mg/kg per os",45 µM·h
same,APTT × 2 maintaining time,"[1]; rats, 1 mg/kg orally, period when plasma concentration exceeded APTT×2",>8 h
same,C8h/APTT × 2,"[1]; rats, 1 mg/kg per os, C8h divided by APTT×2",1.4
same,IC50,[2],5.4 nM
same,APTT ×,[3],1.8 µM
